Source: patent US11932607B1, “4-(2,4,5-tris(4-chlorophenyl)-1H-imidazol-1-yl)benzoic acid as an antimicrobial compound” (KING FAISAL UNIVERSITY, priority 2023, dated 2024)

Columns and labels:
Type in all cases: cell-based
[1] = system: Bacillus cereus; assay: Agar plate disc-diffusion, antibacterial activity (inhibition zone); conditions: Gram positive, DMSO control zone subtracted
Experimental: (§1) The agar plate disc-diffusion method was applied. […] The discs were then placed onto the surface of agar plates (nutrient agar for bacteria and Sabouraud's dextrose agar for fungi) seeded with the test organism. Each plate contained 15 mL of the agar medium, previously seeded with 0.2 mL of the broth culture of each organism pregrown for 18 hours. The plates were incubated at 37° C. for 48 hours, and 72 hours for fungi. The inhibition zones was measured in mm. Discs impregnated with DMSO were used as a control, and its inhibition zone was subtracted from the tested compound actual inhibition zone.

[2] = system: Escherichia coli; assay: as above; conditions: Gram negative, DMSO control zone subtracted
Experimental: as §1

[3] = system: Pseudomonas aeruginosa; assay: as above; conditions: Gram negative, DMSO control zone subtracted
Experimental: as §1

[4] = system: Staphylococcus aureus; assay: as above; conditions: Gram positive, DMSO control zone subtracted
Experimental: as §1

[5] = system: Aspergillus flavus; assay: Agar plate disc-diffusion, antifungal activity (inhibition zone); conditions: fungal, DMSO control zone subtracted
Experimental: as §1

[6] = system: Chrysosporium keratinophilum; assay: as above; conditions: fungal, DMSO control zone subtracted
Experimental: as §1

[7] = A = concentration of comp. = 10,000 μL
[8] = B = concentration of comp. = 30,000 μL
[9] = C = concentration of comp. = 50,000 μL

## O=C(O)c1ccc(-n2c(-c3ccc(Cl)cc3)nc(-c3ccc(Cl)cc3)c2-c2ccc(Cl)cc2)cc1 [V, 4-(2,4,5-tris(4-chlorophenyl)-1H-imidazol-1-yl)benzoic acid]
[1]; [7]
  inhibition zone, Bacillus Cereus, A: 24 mm
[1]; [8]
  inhibition zone, Bacillus Cereus, B: 27 mm
[1]; [9]
  inhibition zone, Bacillus Cereus, C: 35 mm
[2]; [7]
  inhibition zone, Escherichia coli, A: 25 mm
[2]; [8]
  inhibition zone, Escherichia coli, B: 28 mm
[2]; [9]
  inhibition zone, Escherichia coli, C: 39 mm
[3]; [7]
  inhibition zone, Pseudomonas aeruginosa, A: 24 mm
[3]; [8]
  inhibition zone, Pseudomonas aeruginosa, B: 27 mm
[3]; [9]
  inhibition zone, Pseudomonas aeruginosa, C: 32 mm
[4]; [7]
  inhibition zone, Staphylococcus aureus, A: 15 mm
[4]; [8]
  inhibition zone, Staphylococcus aureus, B: 22 mm
[4]; [9]
  inhibition zone, Staphylococcus aureus, C: 26 mm
[5]; [7]
  inhibition zone, Aspergillus flavus, A: 21 mm
[5]; [8]
  inhibition zone, Aspergillus flavus, B: 24 mm
[5]; [9]
  inhibition zone, Aspergillus flavus, C: 35 mm
[6]; [7]
  inhibition zone, Chrysosporium keratinophilum, A: 25 mm
[6]; [8]
  inhibition zone, Chrysosporium keratinophilum, B: 28 mm
[6]; [9]
  inhibition zone, Chrysosporium keratinophilum, C: 48 mm
